Like-named read-outs stand apart in the source and are kept apart here.
Assays:
human RORγ = molecular target: T1, human RORγ (Homo sapiens, UniProt P51449); test: Luciferase reporter gene assay of inhibitory effect against RORγ transcriptional activity (GAL4-hRORγ plasmid in CHO cells); assay type: cell-based
T1 construct: human, NM_005060.3 and from Ser253 to Lys518; expressed in transfected cells; host or cells: CHO cells (transient co-transfection with pG5-Luc reporter)
T1 sequence (P51449 253-518): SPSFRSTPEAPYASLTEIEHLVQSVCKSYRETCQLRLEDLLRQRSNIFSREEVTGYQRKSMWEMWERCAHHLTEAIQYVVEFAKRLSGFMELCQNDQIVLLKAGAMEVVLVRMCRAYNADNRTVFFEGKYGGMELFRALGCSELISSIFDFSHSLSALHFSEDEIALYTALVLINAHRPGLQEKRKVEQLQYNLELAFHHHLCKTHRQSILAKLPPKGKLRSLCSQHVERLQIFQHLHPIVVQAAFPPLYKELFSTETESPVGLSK
Protocol: (§1) In vitro assay of inhibitory effect against RORγ transcriptional activity
(§2) Inhibitory effect of test article on transcriptional activity of RORγ was measured by means of the following luciferase reporter gene assay.
(§3) A cDNA encoding human and mouse RORγ ligand binding domain (LBD) were obtained based on the reported sequences (Genebank accession number and sequence: human, NM_005060.3 and from Ser253 to Lys518; mouse, NM_011281.2 and from Ile251 to Lys516).
(§4) The cDNA of human RORγ or mouse RORγ was inserted into pFA-CMV vector (Strategene), which expresses GAL4-DNA binding domain fusion protein.
(§5) The resulting plasmids are hereinafter referred to as GAL4-hRORγ plasmid and GAL4-mRORγ plasmid, respectively.
(§6) Human or mouse GAL4-RORγ plasmid was transiently co-transfected into Chinese hamster ovary cells (CHO cells) with […] plasmid, a reporter plasmid expressing firefly luciferase depending on GAL4.
(§7) TransIT CHO transfection reagent (Mirus) was used to co-transfect human or mouse GAL4-RORγ plasmid into CHO cells with pG5-Luc plasmid.
(§8) One day before the assay, CHO cells were suspended in HAM F-12 Nutrient medium containing 10 v/v % fetal bovine serum and seeded at 6×10^6 cells per 175 cm^2 cell culture flask.
(§9) Fifty four micro litters of Transit-CHO reagent was added into a 15 ml tube containing 1.16 ml of HAM F-12 Nutrient medium without fetal bovine serum and incubated at room temperature for 10 min.
A total 36 uL plasmid solution containing the GAL4-hRORγ plasmid (400 ng), pG5-Luc plasmid (9000 ng) and pcDNA3 plasmid (8600 ng) were added into the tube and mixed gently.
(§10) The mixture was incubated at room temperature for 10 min.
(§11) Nine micro litters of CHO Mojo Reagent was then added into each tube and mixed gently. The mixture was incubated at room temperature for 10 min.
(§12) The resultant transfection reagent was applied to the cell culture.
(§13) After incubation at 37° C., 5% CO2 for 4 hr, the transfected CHO cells were harvested by a trypsin treatment.
(§14) The collected cells were resuspended in HAM F-12 Nutrient medium supplemented with 10 v/v % fetal bovine serum and plated into a 384-well-white plate at 8,000 cells/50 uL/well.
(§15) The plate was incubated at room temperature for 1 hour and then further incubated at 37° C., 5% CO2 for 3 hours.
(§16) The test articles were dissolved in dimethylsulfoxide (DMSO) to obtain a concentration of 10 mmol/L. The resulting solution was diluted with the medium just before use and added to the cells in the plate to prepare 8 different concentrations of the test article.
(§17) The final concentration of DMSO was 0.1 v/v % After the addition of the test articles, the cells were incubated at 37° C., 5% CO2 for 2 days.
(§18) RORγ transcriptional activity was detected as the intracellular luciferase activity using SteadyLite HTS Reporter Gene Assay System (Perkin Elmer).
(§19) StedyLite Reagent was diluted five-fold into a solution containing 10 mM Tricine, 0.2% w/v BSA, 0.02% v/v Tween-20 to obtain the luciferase substrate solution.
(§20) After the measurement of the cell viability using Resazurin, the culture media in the 384 well-plate were removed. Then the Luc substrate solution was added into each well.
(§21) After the incubation at room temperature for 10 minutes, luminescence of each well was measured by a microplate reader.
(§22) The luciferase activity derived from the luminescence count in the vehicle-control well treated with 0.1% DMSO alone was defined as 100%, and the luciferase activity in the test article was calculated as a percentage (%-of-control) based on the value of the vehicle-control.
(§23) EC50 value of test article was calculated by curve fitting with GraphPad Prism.
(§24) The luminescence counts at the concentration of the test article where the cytotoxicity was observed were excluded from the data analysis.

mouse RORγ = molecular target: T2, mouse RORγ (Mus musculus, UniProt P51450); test: Luciferase reporter gene assay of inhibitory effect against RORγ transcriptional activity (GAL4-mRORγ plasmid in CHO cells); assay type: cell-based
T2 construct: mouse, NM_011281.2 and from Ile251 to Lys516; expressed in transfected cells; host or cells: CHO cells (transient co-transfection with pG5-Luc reporter)
T2 sequence (P51450 251-516): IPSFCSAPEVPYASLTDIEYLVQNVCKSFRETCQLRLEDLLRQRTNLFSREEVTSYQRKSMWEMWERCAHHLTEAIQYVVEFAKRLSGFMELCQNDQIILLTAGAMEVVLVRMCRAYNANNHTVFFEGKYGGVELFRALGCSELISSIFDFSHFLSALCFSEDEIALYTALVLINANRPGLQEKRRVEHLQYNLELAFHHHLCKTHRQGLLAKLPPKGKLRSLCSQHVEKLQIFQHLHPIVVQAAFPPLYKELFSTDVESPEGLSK
Protocol: as §1, §2, §3, §4, §5, §6, §7, §8, §9, §10, §11, §12, §13, §14, §15, §16, §17, §18, §19, §20, §21, §22, §23, §24

| SMILES | EC50 (human RORγ; read-out: LUC EC50 (μM) hRORg) [µM] | EC50 (mouse RORγ; read-out: LUC EC50 (μM) mRORg) [µM] | EC50 (mouse RORγ; read-out: LUC EC50 mRORg) [µM] | EC50 (human RORγ; read-out: LUC EC50 hRORg) [µM] |
| --- | --- | --- | --- | --- |
| CC(C)CCc1nnc(CCC(=O)NC2CCc3ccccc32)n1C1CC1 (racemic) [Example F-83] | > 3 | > 3 |  |  |
| Cc1c(Cl)cccc1NC(=O)CCc1nnc(C(C)CC(C)C)n1C1CC1 (racemic) [Example F-98] | > 3 | < 3 |  |  |
| Cc1c(Cl)cccc1NC(=O)CCc1nnc(CC(C)C(C)C)n1C1CC1 (racemic) [Example F-117] | > 3 | < 3 |  |  |
| Cc1ccc(NC(=O)CCc2nnc(CCC3CCCCC3)n2[C@@H]2C[C@H]2C)c(C)c1 (racemic) [Example F-141] | > 3 | < 3 |  |  |
| CC(=O)N1C[C@H](C(=O)Nc2cccc(Cl)c2C)[C@@H](c2nnc(CCC(C)C)n2C2CC2)C1 (racemic) [Example F-145] | < 3 | < 3 |  |  |
| Cc1c(Cl)cccc1NC(=O)[C@H]1CN(C(=O)CO)C[C@@H]1c1nnc(CCC(C)C)n1C1CC1 (racemic) [Example F-146] | > 3 | < 3 |  |  |
| CC(=O)N1C[C@H](C(=O)Nc2cccc(Cl)c2C)[C@@H](c2nnc(CCC3CCCCC3)n2C2CC2)C1 (racemic) [Example F-155] | < 3 | < 3 |  |  |
| CCOC(=O)C(CC(=O)Nc1cccc(Cl)c1C)c1nnc(CCC(C)C)n1C1CC1 (racemic) [Example F-159] | > 3 | > 3 |  |  |
| CC(=O)N1C[C@H](C(=O)Nc2ccc(C)cc2C)[C@@H](c2nnc(CCC(C)C)n2C2CC2)C1 (racemic) [Example F-162] | > 3 | < 3 |  |  |
| Cc1c(Cl)cccc1NC(=O)CC(O)c1nnc(CCC(C)C)n1C1CC1 (racemic) [Example F-164] | > 3 | < 3 |  |  |
| Cc1c(Cl)cccc1NC(=O)CC(CO)c1nnc(CCC(C)C)n1C1CC1 (racemic) [Example F-167] | < 3 | < 3 |  |  |
| COc1cc(C)ccc1CNC(=O)[C@H]1CN(C(C)=O)C[C@@H]1c1nnc(CCC2CCCCC2)n1C1CC1 (racemic) [Example F-173] | < 3 | < 3 |  |  |
| Cc1c(Cl)cccc1NC(=O)CC(CCO)c1nnc(CCC(C)C)n1C1CC1 (racemic) [Example F-175] | < 3 | < 3 |  |  |
| CC(=O)N1C[C@H](C(=O)Nc2ccc(C)cc2C)[C@@H](c2nnc(CCCC(C)(C)C)n2C2CC2)C1 [Example F-432] | < 3 |  |  |  |
| Cc1ccc(NC(=O)C[C@H](c2nnc([C@H]3C[C@@H](CC(C)C)C3)n2C2CC2)[C@H]2C[C@@H](O)C2)c(C)c1 [Example F-514] |  |  | > 3 |  |
| Cc1ccc(NC(=O)C[C@@H](c2nnc([C@H]3C[C@@H](CC(C)C)C3)n2C2CC2)[C@H]2C[C@@H](O)C2)c(C)c1 [Example F-515] |  |  | < 3 |  |
| Cc1ccc(NC(=O)C[C@H](c2nnc([C@H]3C[C@@H](CC(C)C)C3)n2C2CC2)[C@H]2C[C@H](O)C2)c(C)c1 [Example F-522] |  |  | > 3 |  |
| Cc1ccc(NC(=O)C[C@@H](c2nnc([C@H]3C[C@@H](CC(C)C)C3)n2C2CC2)[C@H]2C[C@H](O)C2)c(C)c1 [Example F-523] |  |  | < 3 |  |
| Cc1ccc(NC(=O)[C@H](CC(=O)O)Cc2noc([C@H]3C[C@@H](CC(C)(C)C)C3)c2C2CC2)c(Cl)c1 [Example F-678] |  |  |  | < 3 |

From patent US20160137639A1, “TRIAZOLE-ISOXAZOLE COMPOUND AND MEDICAL USE THEREOF” (JAPAN TOBACCO INC., priority 2012, published 2016)
